The values below come from US9586973B2, “HDAC6 inhibitors and uses thereof” (Universiteit Gent, priority 2013, dated 2017).

Where two headings read alike, the source gives them in different places.

The subject of experiment [1] is MO4 mouse fibrosarcoma cells. Description: SRB assay, inhibition of cell proliferation. Format: cell-based. The settings on record: tested at 0.01, 0.1, 1 and 10 μg/ml, FIG. 2. The method, then: The sulforhodamine B (SRB) assay is used for cell density determination, and is based on the measurement of cellular protein content (“biomass”)^12,13. The method has been optimized for the screening of compounds for growth effects on adherent cells in a 96-well format. After an incubation period with the compound of the invention, cell monolayers (MO4 mouse fibrosarcoma cells) are fixed with 50% (wt/vol) trichloroacetic acid for 1 hour and stained with SRB for 30 min, after which the excess dye is removed by washing repeatedly with 1% (vol/vol) […]. The protein-bound dye is dissolved in 10 mM Tris base solution for OD determination at 570 nm using a microplate reader. […] The method allows to test a large number of samples within a few days, and is a quantitative assay for growth inhibition by microtubule inhibitors.

A further experiment addresses HDAC1 (Homo sapiens, UniProt Q13547). Put plainly: HDAC1 inhibitory activity (in vitro pharmacology). In kind it is biochemical. To be noted: for inhibition at 10 µM: read-out: % inhibition HDAC1.
A further experiment concerns the target T1, HDAC6 (Homo sapiens, UniProt Q9UBN7).
T1 sequence (Q9UBN7 1-1215): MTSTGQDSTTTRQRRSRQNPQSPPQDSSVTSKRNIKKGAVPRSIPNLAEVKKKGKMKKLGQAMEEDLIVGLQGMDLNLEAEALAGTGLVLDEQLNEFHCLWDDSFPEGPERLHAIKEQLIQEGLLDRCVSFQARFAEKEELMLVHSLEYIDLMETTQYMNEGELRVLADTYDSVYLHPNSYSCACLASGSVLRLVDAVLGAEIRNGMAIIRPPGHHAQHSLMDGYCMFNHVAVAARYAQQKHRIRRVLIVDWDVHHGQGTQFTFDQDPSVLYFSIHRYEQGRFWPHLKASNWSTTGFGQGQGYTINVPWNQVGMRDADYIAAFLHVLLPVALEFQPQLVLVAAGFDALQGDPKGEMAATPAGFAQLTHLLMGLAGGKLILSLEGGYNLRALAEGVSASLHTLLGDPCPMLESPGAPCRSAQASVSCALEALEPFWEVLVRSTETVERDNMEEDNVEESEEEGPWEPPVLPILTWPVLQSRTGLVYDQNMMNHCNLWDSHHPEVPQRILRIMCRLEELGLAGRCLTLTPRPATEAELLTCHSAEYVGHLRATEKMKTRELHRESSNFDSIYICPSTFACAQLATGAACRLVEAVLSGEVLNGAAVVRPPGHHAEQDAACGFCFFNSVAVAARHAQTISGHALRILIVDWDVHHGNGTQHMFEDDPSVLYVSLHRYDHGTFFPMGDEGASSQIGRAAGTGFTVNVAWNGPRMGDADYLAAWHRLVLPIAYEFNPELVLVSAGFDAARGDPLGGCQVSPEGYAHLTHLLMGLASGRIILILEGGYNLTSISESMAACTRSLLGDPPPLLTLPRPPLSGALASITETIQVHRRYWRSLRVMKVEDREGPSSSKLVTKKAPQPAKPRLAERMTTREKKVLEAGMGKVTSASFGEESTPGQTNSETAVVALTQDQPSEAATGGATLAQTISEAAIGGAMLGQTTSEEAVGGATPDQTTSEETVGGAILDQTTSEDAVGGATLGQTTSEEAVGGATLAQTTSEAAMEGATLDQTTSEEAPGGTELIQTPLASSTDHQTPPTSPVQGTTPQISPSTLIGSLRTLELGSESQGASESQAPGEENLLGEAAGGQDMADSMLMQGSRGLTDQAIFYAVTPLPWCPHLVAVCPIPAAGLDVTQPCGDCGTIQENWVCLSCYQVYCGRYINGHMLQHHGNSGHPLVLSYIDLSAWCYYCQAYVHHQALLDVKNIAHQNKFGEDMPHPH
Description: biochemical. To be noted: for inhibition at 10 µM: read-out: % inhibition HDAC6.

Experiment [2] is described as follows: MTT assay, inhibition of cell proliferation. The settings on record: tested at 0.01, 0.1, 1 and 10 μg/ml; FIG. 3. (Tetrazolium assays rely on reduction of a dye to a coloured formazan, in cell work by metabolically active cells.)
A further experiment addresses HDAC4 (Homo sapiens, UniProt P56524). Put plainly: HDAC4 inhibition (selectivity). Format: biochemical.
For another experiment, the target named is T2, HDAC11 (Homo sapiens, UniProt Q96DB2).
T2 sequence (Q96DB2 1-347): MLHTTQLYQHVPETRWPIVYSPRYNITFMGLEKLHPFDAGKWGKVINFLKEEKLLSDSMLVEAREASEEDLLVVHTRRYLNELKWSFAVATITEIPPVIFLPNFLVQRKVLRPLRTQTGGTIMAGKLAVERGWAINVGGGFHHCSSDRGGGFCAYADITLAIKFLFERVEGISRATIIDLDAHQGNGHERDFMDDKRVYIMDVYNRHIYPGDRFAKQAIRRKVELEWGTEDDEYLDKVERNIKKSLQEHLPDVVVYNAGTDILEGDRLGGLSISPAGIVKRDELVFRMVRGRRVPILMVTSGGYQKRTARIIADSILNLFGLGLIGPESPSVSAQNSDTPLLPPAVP
Put plainly: HDAC11 inhibition (selectivity). Format: biochemical. The settings on record: for HDAC 11 inhibitory effect: no IC50 values could be obtained.

Experiment [3] relates to MDA MB 231 human mammary adenocarcinoma cells. Put plainly: Collagen invasion assay. In kind it is cell-based. To be noted: for inhibition of invasion of cells into collagen type I gel: 24 hours, FIG. 4. The text has this: Tissue invasion requires infiltration into an extracellular matrix (ECM) dominated by networks of collagen type I. The invasion model consists of native, acid-extracted rat tail collagen type I containing nonhelical telopeptides situated at the N- and C-terminal ends. These telopeptides play an important role in intermolecular covalent cross-links necessary for a gel architecture presenting itself as a structural barrier to cancer cell traffic. […] The collagen type I solution was gently poured into the wells of a 6-well plate. The experimental set-up was placed at 37° C. in a humidified atmosphere with 10% CO2 in air for at least 1 h. […] Invasion is calculated as the percentage of invading cells per high powered field and is expressed as the mean and standard deviation.
Compound 7c (10 μg/ml) and paclitaxel (1 μg/ml) were tested in the assay. As a control, cells in medium without additional compounds was used. The effect of the solvent of compound 7c (1% DMSO) was measured as well.

Another experiment concerns the target T3, HDAC8 (Homo sapiens, UniProt Q9BY41).
T3 sequence (Q9BY41 1-377): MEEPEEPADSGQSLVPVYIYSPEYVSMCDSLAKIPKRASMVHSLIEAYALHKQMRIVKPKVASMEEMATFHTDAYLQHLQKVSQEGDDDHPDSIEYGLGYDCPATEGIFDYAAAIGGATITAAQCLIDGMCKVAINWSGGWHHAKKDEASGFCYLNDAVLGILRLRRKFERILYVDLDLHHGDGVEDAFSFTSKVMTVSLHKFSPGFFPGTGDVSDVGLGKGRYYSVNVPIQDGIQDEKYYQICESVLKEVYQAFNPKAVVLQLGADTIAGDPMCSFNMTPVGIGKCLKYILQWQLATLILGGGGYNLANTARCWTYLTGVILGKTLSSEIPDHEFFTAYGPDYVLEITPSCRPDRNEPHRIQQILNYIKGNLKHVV
Put plainly: HDAC8 inhibition (selectivity). In kind it is biochemical.

Setting [4] is: read-out: IC50 values for HDAC6 inhibition, Table 3 and text.

HDAC4, sequence (P56524 whole entry, species assumed): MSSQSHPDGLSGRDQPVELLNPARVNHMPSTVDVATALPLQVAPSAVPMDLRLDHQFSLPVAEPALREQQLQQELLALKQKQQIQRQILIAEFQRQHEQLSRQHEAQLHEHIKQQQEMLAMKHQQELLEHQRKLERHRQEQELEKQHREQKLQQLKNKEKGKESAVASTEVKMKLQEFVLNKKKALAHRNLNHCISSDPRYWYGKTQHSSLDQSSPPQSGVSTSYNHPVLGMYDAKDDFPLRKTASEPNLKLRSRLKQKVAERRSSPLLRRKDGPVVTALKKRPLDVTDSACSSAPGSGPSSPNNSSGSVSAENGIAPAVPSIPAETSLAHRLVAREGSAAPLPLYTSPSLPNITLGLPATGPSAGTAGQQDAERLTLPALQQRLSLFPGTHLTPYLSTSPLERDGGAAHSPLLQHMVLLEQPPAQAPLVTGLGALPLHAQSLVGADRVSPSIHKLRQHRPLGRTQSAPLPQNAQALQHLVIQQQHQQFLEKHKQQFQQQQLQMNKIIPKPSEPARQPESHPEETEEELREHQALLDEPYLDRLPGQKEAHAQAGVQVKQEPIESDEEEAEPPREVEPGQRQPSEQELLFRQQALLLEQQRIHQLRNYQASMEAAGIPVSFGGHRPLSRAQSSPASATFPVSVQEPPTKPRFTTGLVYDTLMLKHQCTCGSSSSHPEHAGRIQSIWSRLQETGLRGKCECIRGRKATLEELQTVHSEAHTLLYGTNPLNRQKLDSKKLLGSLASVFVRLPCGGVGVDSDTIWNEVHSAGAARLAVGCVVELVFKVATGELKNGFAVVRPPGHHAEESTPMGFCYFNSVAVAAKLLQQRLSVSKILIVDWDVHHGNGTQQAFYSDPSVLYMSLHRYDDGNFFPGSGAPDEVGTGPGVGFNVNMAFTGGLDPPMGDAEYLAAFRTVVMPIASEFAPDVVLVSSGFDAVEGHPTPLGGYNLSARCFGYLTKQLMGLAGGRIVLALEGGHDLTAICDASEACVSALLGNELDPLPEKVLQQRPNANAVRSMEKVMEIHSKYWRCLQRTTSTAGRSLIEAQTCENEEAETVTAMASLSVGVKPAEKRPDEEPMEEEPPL
HDAC1, sequence (Q13547 whole entry, species assumed): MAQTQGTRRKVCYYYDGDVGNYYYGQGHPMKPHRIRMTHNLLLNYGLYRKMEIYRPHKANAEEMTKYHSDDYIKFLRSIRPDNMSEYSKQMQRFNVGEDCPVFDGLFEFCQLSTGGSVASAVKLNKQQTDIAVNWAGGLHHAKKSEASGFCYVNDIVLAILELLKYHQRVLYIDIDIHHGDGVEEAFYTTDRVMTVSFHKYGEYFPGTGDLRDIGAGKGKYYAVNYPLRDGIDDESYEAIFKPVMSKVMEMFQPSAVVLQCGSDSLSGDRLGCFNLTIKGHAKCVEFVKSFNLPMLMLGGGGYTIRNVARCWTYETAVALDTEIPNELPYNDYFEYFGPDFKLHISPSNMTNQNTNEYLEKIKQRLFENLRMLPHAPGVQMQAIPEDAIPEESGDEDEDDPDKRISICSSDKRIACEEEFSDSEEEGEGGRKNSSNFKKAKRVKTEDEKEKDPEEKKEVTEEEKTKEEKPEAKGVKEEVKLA

A word on the inhibition: it is the drop in the measured response relative to a control, in per cent. For orientation: IC50 means the point on the concentration scale where inhibition reaches its midpoint. Regarding `O=C(NO)c1ccc(Cn2c3c(c4ccccc42)CSCC3)cc1` [Compound 7a, N-(4-Hydroxycarbamoylbenzyl)-1,2,4,9-tetrahydro-3-thia-9-azafluorene], the results for the “inhibition of cell proliferation, SRB assay” value (shortened to “inhibition … SRB assay”) in experiment [1] and in experiment [1] (listed as 7A) were “inhibit cell proliferation” and “inhibition of cell proliferation”, respectively. Moreover, the inhibition at 10 µM on HDAC1 came out at 26%; on HDAC6, 99%. In addition, the IC50 against HDAC6 was 15 nM. Besides, the “inhibition of cell proliferation, MTT assay” value (from here on “inhibition … MTT assay”) in experiment [2] is recorded as “inhibition of cell proliferation”.

For the molecule `O=C(NO)c1ccc(Cn2c3c(c4cc(F)ccc42)CSCC3)cc1` [Compound 7c, N-(4-Hydroxycarbamoylbenzyl)-6-fluoro-1,2,4,9-tetrahydro-3-thia-9-azafluorene], the “inhibition … SRB assay” value in experiment [1] is reported as “inhibit cell proliferation”; in experiment [1] (listed as 7C) it was “inhibition of cell proliferation”. Besides, the IC50 turned out to be 21000 nM against HDAC1; 1500 nM against HDAC4; 9700 nM against HDAC11; 22 nM at HDAC6; 22 nM on HDAC6 (read-out: HDAC6 IC50, Table 4); 22 nM at HDAC6 (setting [4]). Moreover, the half-maximal inhibitory concentration (IC50) against HDAC8 was 2800 nM. The inhibition at 10 µM at HDAC1 was 17%; on HDAC6, 99%. Also, the “inhibition of invasion of cells into collagen type I gel” value is given as “inhibits invasion” in experiment [3] (10 μg/ml, compared to solvent control (1% DMSO)) and “inhibition of invasion” in experiment [3] (10 μg/ml, compared to solvent control (1% DMSO), listed as 7C). In addition, the histology of invasion entry in experiment [3] (after 14 days) is reported as “confirmed inhibition of invasion”. The “HDAC6 versus HDAC8 selectivity” value on HDAC6 worked out at 127 fold. Besides, the “inhibition … MTT assay” value in experiment [2] is reported as “inhibition of cell proliferation”.

Take `O=C(NO)c1ccc(Cn2c3c(c4ccccc42)CS(=O)(=O)CC3)cc1` [Compound 10a, N-(4-Hydroxycarbamoylbenzyl)-1,2,4,9-tetrahydro-3-thia-9-azafluorene-3,3-dioxide]: the IC50 was determined as 11000 nM against HDAC1; 11000 nM at HDAC1 (read-out: HDAC1 IC50, Table 5); 1600 nM against HDAC4; 1.9 nM on HDAC6; 1.9 nM on HDAC6 (read-out: HDAC6 IC50, Table 4); 1.9 nM at HDAC6 (read-out: HDAC6 IC50, Table 5). Besides, the IC50 on HDAC6 (setting [4]) came out at 1.9 nM; on HDAC8, 1700 nM. Also, the inhibition at 10 µM on HDAC1 is 51%; at HDAC6 it was 99%. The “HDAC 11 inhibitory effect” value at HDAC11 is “very low”. At HDAC6, the “HDAC6 versus HDAC4 selectivity” value was determined as 842 fold. The “HDAC6 versus HDAC8 selectivity” value at HDAC6 came out at 895 fold. Moreover, the “selectivity against HDAC1 (HDAC6 vs HDAC1)” value at HDAC6 worked out at 5789 fold. Moreover, at HDAC6 (Table 5), the “Selectivity = IC50 (HDAC1)/IC50 (HDAC6)” value stood at 5789.

As to `COc1cc(C(=O)NO)ccc1Cn1c2c(c3ccccc31)CS(=O)(=O)CC2` [Compound 10b], the inhibition at 10 µM on HDAC1 stood at 2%. Also, on HDAC6, half-maximal inhibition (IC50) was put at 2000 nM and the inhibition at 10 µM was found to be 73%.

As for `O=C(NO)c1ccc(Cn2c3c(c4cc(F)ccc42)CS(=O)(=O)CC3)cc1` [Compound 10c, N-(4-Hydroxycarbamoylbenzyl)-6-fluoro-1,2,4,9-tetrahydro-3-thia-9-azafluorene-3,3-dioxide], the IC50 was 12000 nM at HDAC1; 12000 nM on HDAC1 (read-out: HDAC1 IC50, Table 5); 1900 nM against HDAC4; 3.7 nM against HDAC6; 3.7 nM on HDAC6 (read-out: HDAC6 IC50, Table 4); 3.7 nM at HDAC6 (read-out: HDAC6 IC50, Table 5). Also, the IC50 worked out at 3.7 nM at HDAC6 (setting [4]) and 930 nM at HDAC8. The inhibition at 10 µM on HDAC1 was 53%; at HDAC6, 99%. Besides, at HDAC11, the “HDAC 11 inhibitory effect” value is on record as “very low”. Moreover, the “HDAC6 versus HDAC4 selectivity” value on HDAC6 is 513 fold. Moreover, on HDAC6, the “HDAC6 versus HDAC8 selectivity” value amounted to 251 fold. At HDAC6, the “selectivity against HDAC1 (HDAC6 vs HDAC1)” value came to 3243 fold. Moreover, the “Selectivity = IC50 (HDAC1)/IC50 (HDAC6)” value on HDAC6 (Table 5) came out at 3243.

Consider `COc1cc(C(=O)NO)ccc1Cn1c2c(c3cc(F)ccc31)CS(=O)(=O)CC2` [Compound 10d], for which the inhibition at 10 µM on HDAC1 amounted to 8%. Moreover, at HDAC6, the 50% inhibitory concentration (IC50) is 1300 nM and the inhibition at 10 µM was determined as 75%.

With `CC(=O)O[C@H]1C(=O)[C@@]2(C)[C@H]([C@H](OC(=O)c3ccccc3)[C@]3(O)C[C@H](OC(=O)[C@H](O)[C@@H](NC(=O)c4ccccc4)c4ccccc4)C(C)=C1C3(C)C)[C@]1(OC(C)=O)CO[C@@H]1C[C@@H]2O` [Paclitaxel, reference compound], the “inhibition … SRB assay” value in experiment [1] is recorded as “inhibition of cell proliferation”. In experiment [3] (1 μg/ml), the “inhibition of invasion of cells into collagen type I gel” value is “inhibition of invasion”. Moreover, the “inhibition … MTT assay” value in experiment [2] is listed as “inhibition of cell proliferation”.
